Measured values published in patent publication US20140072557A1, “MEDICINAL AGENT FOR SUPPRESSING MALIGNANT TUMOR METASTASIS” (priority 2011, published 2014).

What was measured:
[1] = system: A549 cells; assay: Mouse tail vein injection metastasis test, GFP-labeled A549 cells; format: in vivo; settings: hANP 0.5 μg/kg/min by subcutaneous osmotic pump for 4 weeks, observed 8 weeks after injection, Balb/c (nu/nu) mice
Procedure: Six-week-old male Balb/c (nu/nu) mice were used (purchased from Japan SLC, Inc.).
The osmotic pumps used were MODEL2004 (for 28-day administration) made by ALZET (Cupertino, Calif.).
Mice into which an osmotic pump containing 0.9% physiological saline was subcutaneously implanted in the back were assigned to the control group. Similarly, mice into which an osmotic pump containing hANP prepared for administration at 0.5 μg/kg/min was subcutaneously implanted were assigned to the ANP group. Injection of a tumor cell suspension was performed on the day after the osmotic pump implantation.
As the tumor cells, A549 cell line labeled with GFP (Green Fluorescent Protein) was purchased from Wako Pure Chemical Industries, Ltd., and cultured in RPMI1640 (Life Technologies Corp.) containing 10% FCS under 5% CO2 at 37° C. The cells in a subconfluent state were treated with EDTA-trypsin, centrifuged, and then suspended in serum free DMEM so as to be 1×10^7 cells/mL. The A549 cell suspension (100 μL/body, 1×10^6 cells) was injected to the tail vein of the mice.

[2] = system: A549 cells; assay: Invasion ability, Matrigel-coated Boyden chamber assay, A549 cells; format: cell-based; settings: 1 μM hANP, TGF-β1 1 ng/mL, 40 hours
Procedure: (§1) Using a 6-well dish, the A549 cells were cultured at 1×10^5 cells/well, and the culture medium was replaced with DMEM culture medium free from FBS the next day. After 24 hours of culture, the cells were divided into 3 groups (the control group, the TGF-β1 group, and the TGF-β1+hANP group), and used in the following experiment.
To the culture medium for the TGF-β1+hANP group, the hANP solution was added so that the final concentration of hANP would be […] the control group and the TGF-β1 group, the same amount of physiological saline was added to the culture medium. After 2 hours from the addition, the Boyden chamber assay was performed as follows. Cell culture inserts (8.0 μm pore size, made by Becton, Dickinson and Company) coated with Matrigel were prepared beforehand by placing cell culture inserts on a 6-well dish, adding 300 μL each of a […] Matrigel solution (adjusted with PBS) thereonto, and air drying the inserts.
DMEM culture medium free from FBS for the control group, the same DMEM culture medium containing TGF-β1 (final concentration: 1 ng/mL) for the TGF-β1 group, and the same DMEM culture medium containing hANP (final concentration: 1 μM) and TGF-β1 (final concentration: 1 ng/mL) for the TGF-β1+hANP group were separately added to each well of a 6-well dish in an amount of 1.5 mL. […]

[3] = system: HUVEC; assay: VE-cadherin expression and intercellular adhesion of confluent HUVEC with VEGF; format: cell-based, human; settings: VEGF+hANP
Procedure: (§2) Normal human umbilical cord vein endothelial cells (HUVEC) were purchased from Takara Bio, Inc. Medium preparation and subculture were performed according to the package insert. Nuclear staining was performed using TOPRO3 (purchased from Invitrogen), and immunostaining of VE-cadherin was performed using anti-VE-cadherin antibody (purchased from BD Biosciences). p After culturing the HUVEC to confluent and replacing the medium with a serum free medium, nuclear staining and immunostaining using anti-VE-cadherin antibody were performed in the presence or absence of VEGF and hANP to observe the expression of VE-cadherin.

[4] = system: A549 cells; assay: Motility, wound healing assay, A549 cells; format: cell-based; settings: 1 μM hANP, TGF-β1 1 ng/mL, 24 hours
Procedure: as §1, with “cultured at 4×10^5 cells/well, and” for “cultured at 1×10^5 cells/well, and”, “group, the TGF-(31 group, and” for “group, the TGF-β1 group, and”
To the culture medium for the TGF-β1+hANP group, the hANP solution was added so that the final concentration of hANP would be 1 μM. For the control group and the TGF-β1 group, the same amount of physiological saline was added to the culture medium. Two hours later, a wound was created at the center of each well with the use of a 200 μL-pipette tip. Immediately after the wound creation, a photograph of each well was taken under a microscope (FIG. 7A). To the TGF-β+hANP group and the TGF-β1 group, TGF-β1 was added so that the final concentration would be 1 ng/mL. After 24-hour culture, a photograph of the same part was taken again to calculate the average ratio of the wounded area width difference between immediately after the wound creation and after 24-hour culture (migration ratio: % wounded area filled) by the following formula.
Migration ratio (%)=(initial wound width−wound width after 24-hour culture)/(initial wound width)×100

[5] = system: HUVEC cell layer; assay: Implantation of A549 cells into HUVEC cell layer; format: cell-based, human; settings: VEGF+hANP (1 μM)
Procedure: as §2
In the presence of VEGF alone, the expression of VE-cadherin decreased, and intercellular gaps were observed. […] Further, in the presence of VEGF alone, when A549 cells were added onto the HUVEC cell layer, implantation of the A549 cells into the HUVEC cell layer was observed.

## CC[C@H](C)[C@@H]1NC(=O)[C@H](CCCNC(=N)N)NC(=O)[C@H](CC(=O)O)NC(=O)[C@H](CCSC)NC(=O)[C@H](CCCNC(=N)N)NC(=O)CNC(=O)CNC(=O)[C@H](Cc2ccccc2)NC(=O)[C@@H](NC(=O)[C@H](CO)NC(=O)[C@H](CO)NC(=O)[C@H](CCCNC(=N)N)NC(=O)[C@H](CCCNC(=N)N)NC(=O)[C@H](CC(C)C)NC(=O)[C@@H](N)CO)CSSC[C@@H](C(=O)N[C@@H](CC(N)=O)C(=O)N[C@@H](CO)C(=O)N[C@@H](Cc2ccccc2)C(=O)N[C@@H](CCCNC(=N)N)C(=O)N[C@@H](Cc2ccc(O)cc2)C(=O)O)NC(=O)CNC(=O)[C@H](CC(C)C)NC(=O)CNC(=O)[C@H](CO)NC(=O)[C@H](CCC(N)=O)NC(=O)[C@H](C)NC(=O)CNC1=O [hANP, carperitide]
[1]
  lung metastasis (number of nodules): significantly suppressed
[2]
  cell invasion via the Matrigel layer: significantly suppressed
[3]
  decrease of VE-cadherin expression and intercellular gaps caused by VEGF: this phenomenon was suppressed
[4]
  motility (migration ratio, % wounded area filled): significantly suppressed
[5]
  implantation of A549 cells into the HUVEC cell layer: this phenomenon of implantation was suppressed
